Assays:
[1] = Hydrolysis and cyclization of active NHS ester in PBS; assay type: physicochemical; conditions: PBS (pH 8.2), ligand coupling conditions
NK1 receptor = conditions: 37°C; ref Garland et al., 1994; cited from earlier work

Compound | hydrolysis and cyclization of the active NHS ester [1] | time to NK1 receptor internalization upon activation (NK1 receptor) [min]
O=C(CCCC[C@@H]1SC[C@@H]2NC(=O)N[C@@H]21)NCCCOCCOCCOCCCn1cc(CNC(=O)[C@H](CCCCNC(=O)CCC(=O)ON2C(=O)CCC2=O)NC(=O)CCc2ccc(C3(C(F)(F)F)N=N3)cc2)nn1 [probe 1, 2,5-Dioxopyrrolidin-1-yl 4-oxo-4-(((S)-6-oxo-6-(((1-(15-oxo-19-((3aS,4S,6aR)-2-oxohexahydro-1H-thieno[3,4-d]imidazol-4-yl)-4,7,10-trioxa-14-azanonadecyl)-1H-1,2,3-triazol-4-yl)methyl)amino)-5-(3-(4-(3-(trifluoromethyl)-3H-diazirin-3-yl)phenyl)propanamido)hexyl)amino)butanoate] | partial hydrolysis as well as intramolecular cyclization of the active NHS ester were inevitable | 
substance P [SP] |  | 3
